Laboratory results: patent US11440932B2, “Surfactant compounds-clips for extraction and stabilization in solution of membrane proteins” (CENTRE NATIONAL DE LA RECHERCHE SCIENTIFIQUE, priority 2017, dated 2022)

Molecular target: T1, BmrA (Bacillus subtilis, UniProt O06967)
T1 construct: His tag; made in house; host or cells: E. coli C41(DE3)
Test: ATPase activity of BmrA after addition of detergents
Type: biochemical, bacterial; produced in E. coli C41 DE3
Protocol: FIG. 7 depicts the effect of the detergents of the invention on the functionality of BmrA (ATPase activity, %). The membrane fraction enriched in BmrA (˜25%) diluted to 2 g/l has the compounds added to it at the concentrations (mM) indicated (panel A, from top to bottom: 3.7e 10.7 mM, 3.7e 8.6 mM, 3.7e 6.4 mM, 3.7e 4.3 mM, 3.7e 2.2 mM, 3.7e 1.1 mM, 3.7d 4 mM, 3.7d 3 mM, 3.7d 2 mM, 3.7d 1 mM, 3.7d 0.8 mM, 3.7d 0.6 mM, 3.7d 0.05 mM, 3.7d 0.03 mM, 3.7d 0.02 mM, 3.7c 13 mM, 3.7c 10.4 mM, 3.7c 10 mM, 3.7b 1.5 mM, 3.7b 0.7 mM, 3.7b 0.5 mM, 2.3gNa2 20.5 mM, 2.3gK2 19.3 mM, 2.3f 21.1 mM, 2.3e 22 mM, 2.3d 23.2 mM, 2.3a 3.2 mM, 1.5a 22 mM, DDM 20 mM, DDM 2 mM, DDM 10 mM, DOM 2 mM, DDM 1 mM, LMNG 10 mM, LMNG 1 mM, LMNG 0.1 mM, LMNG 0.01 mM, FA3 27 mM, FA3 9 mM, FA3 2 mM, FA3 1 mM, TX100 16 mM; panel B from top to bottom: compounds of the invention 5.3d 3.2 mM, 5.3c 3.3 mM, 5.3b 11.7 mM, 5.3b 2.9 mM, 5.3a 3 mM, 4.6c 14.6 mM, 4.6b 15.2 mM, 4.5c 18.6 mM, 4.5b 19.6 mM, 3.9a 8 mM, 3.9a 0.51 mM, 3.9a 0.31 mM, 3.9a 0.11 mM, 3.7l 12.01 mM, 3.7l 6.01 mM, 3.7l 3 mM, 3.7l 1 mM, 3.7k 10 mM, 3.7k 3 mM, 3.7j 3 mM, 3.7j 2 mM, 3.7j 1 mM, 3.7j 0.6 mM, 3.7j 0.03 mM, 3.7j 0.02 mM, 3.7j 1 mM, 3.7i 0.3 mM, 3.7h 3 mM, 3.7h 2 mM, 3.7h 1 mM, 3.7h 0.6 mM, 3.7h 0.58 mM, 3.7h 0.5 mM, 3.7h 0.35 mM, 3.7h 0.1 mM, 3.7h 0.5 mM, 3.7h 0.35 mM, 3.7h 0.1 mM, 3.7h 0.05 mM, 3.7h 0.03 mM, 3.7h 0.02 mM, 3.7g 12.5 mM, 3.7g 9 mM, 3.7g 7.5 mM, 3.7g 5 mM, 3.7g 3 mM, 3.7g 1 mM, 3.7f 3.2 mM, 3.7f 2 mM, 3.7f 1 mM, 3.7f 0.061 mM, 3.7f 0.031 mM, 3.7f 0.015 mM). After incubation for 2 h at 4° C., the ATPase activity is measured. The solutions are subsequently centrifuged for 1 h at 4° C., 100 000×g, and the supernatants deposited on 10% SDS-PAGE (cf. FIG. 8). The gray and black histograms correspond to the concentrations at which BmrA is partially (gray) or entirely (black) extracted, according to these SDS-PAGE. The ATPase activity is in % relative to that of the protein without compound, 0.7 μmol ATP hydrolyzed/min/mg of proteins.
The molecules of the invention which extract BmrA in the previous example were tested at different sub-solubilizing and solubilizing concentrations, to evaluate their impact on the native and functional state of the protein. The latter is monitored by the hydrolysis of ATP which is carried out by the protein during the transport cycle, coupled with translocation of the solute. As reported previously (Matar-Merheb, R. et al. ([11])), the ATPase activity of BmrA is a highly sensitive marker of the state of the protein, the latter being particularly sensitive to the detergents used during the extraction step, where said detergents replace the lipids on contact with the membrane protein.
Procedure. BmrA produced and enriched in the plasma membrane of E. coli C41 DE3 is prepared as described previously (Matar-Merheb, R. et al. ([11])). The membranes are diluted at 2 g/l in a 20 mM Tris-HCl buffer, pH 8.0, 100 mM NaCl, 15% glycerol, with protease inhibitors (Roche) added thereto at an amount of one tablet/100 ml. The mixture (T) is incubated for 2 h at 4° C. and the ATPase activity is measured using the coupled-enzyme system, separating off the vanadate-insensitive activity from the total activity, Centeno, F. et al. Expression of the sarcoplasmic reticulum Ca^2+-ATPase in yeast. FEBS Lett 354, 117-122 (1994) ([25])). The solutions are subsequently centrifuged for 1 h at 4° C. at 100 000×g in order to separate the extracted fraction (supernatant, S) from that which is not extracted (pellet). The supernatants are deposited on 10% SDS-PAGE and stained with Coomassie blue after migration (FIG. 8). DDM, LMNG (Chae, P. S. et al. ([6])), TritonX100 and FA3 (Lee, S. C. et al. (2013) ([9])) are tested as reference detergents. The DDM and LMNG originate from Anatrace, the Triton X100 originates from Sigma-Aldrich and the FA3 from Avanti-Polars.

T1 sequence (O06967 whole entry): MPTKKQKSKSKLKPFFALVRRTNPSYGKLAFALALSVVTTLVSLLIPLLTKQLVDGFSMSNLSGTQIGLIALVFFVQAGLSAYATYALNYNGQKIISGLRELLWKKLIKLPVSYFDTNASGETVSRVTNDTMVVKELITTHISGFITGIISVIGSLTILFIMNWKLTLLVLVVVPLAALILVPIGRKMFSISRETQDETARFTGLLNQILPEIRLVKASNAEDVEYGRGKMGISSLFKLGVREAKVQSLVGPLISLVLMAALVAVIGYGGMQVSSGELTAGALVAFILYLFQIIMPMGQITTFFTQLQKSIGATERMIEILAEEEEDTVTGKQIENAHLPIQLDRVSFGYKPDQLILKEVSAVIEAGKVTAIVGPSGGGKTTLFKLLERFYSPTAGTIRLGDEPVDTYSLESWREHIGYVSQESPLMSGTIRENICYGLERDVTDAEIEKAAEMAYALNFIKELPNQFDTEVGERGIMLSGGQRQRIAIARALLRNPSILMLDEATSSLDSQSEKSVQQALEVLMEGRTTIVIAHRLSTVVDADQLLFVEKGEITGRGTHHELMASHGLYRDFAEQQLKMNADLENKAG

## CCCCCCCCCCC(CCCCCCCCCC)(CO[C@@H]1O[C@H](CO)[C@@H](O[C@H]2O[C@H](CO)[C@@H](O)[C@H](O)[C@H]2O)[C@H](O)[C@H]1O)CO[C@@H]1O[C@H](CO)[C@@H](O[C@H]2O[C@H](CO)[C@@H](O)[C@H](O)[C@H]2O)[C@H](O)[C@H]1O [LMNG, lauryl maltose neopentyl glycol, reference compound]
Relative to protein without compound, at concentrations that solubilize/extract BmrA (LMNG 10 mM; DDM beyond 5 mM), 2 h at 4° C.
  ATPase activity of BmrA: 25%
Up to 1 mM
  impact on the activity of BmrA: relatively low impact
